We go through 3 molecules from article PMC7824111, “Targeting Cytokinin Homeostasis in Rapid Cycling Brassica rapa with Plant Growth Regulators INCYDE and TD-K” (Plants, 2020).

One assay concerns the target CRE1/AHK4 (Arabidopsis thaliana, UniProt Q9C5U0). Description: E. coli receptor activation assay. It is filed as cell-based.
The target of the next assay is T1, AHK3 (Arabidopsis thaliana, UniProt Q9C5U1).
T1 sequence (Q9C5U1 1-1036): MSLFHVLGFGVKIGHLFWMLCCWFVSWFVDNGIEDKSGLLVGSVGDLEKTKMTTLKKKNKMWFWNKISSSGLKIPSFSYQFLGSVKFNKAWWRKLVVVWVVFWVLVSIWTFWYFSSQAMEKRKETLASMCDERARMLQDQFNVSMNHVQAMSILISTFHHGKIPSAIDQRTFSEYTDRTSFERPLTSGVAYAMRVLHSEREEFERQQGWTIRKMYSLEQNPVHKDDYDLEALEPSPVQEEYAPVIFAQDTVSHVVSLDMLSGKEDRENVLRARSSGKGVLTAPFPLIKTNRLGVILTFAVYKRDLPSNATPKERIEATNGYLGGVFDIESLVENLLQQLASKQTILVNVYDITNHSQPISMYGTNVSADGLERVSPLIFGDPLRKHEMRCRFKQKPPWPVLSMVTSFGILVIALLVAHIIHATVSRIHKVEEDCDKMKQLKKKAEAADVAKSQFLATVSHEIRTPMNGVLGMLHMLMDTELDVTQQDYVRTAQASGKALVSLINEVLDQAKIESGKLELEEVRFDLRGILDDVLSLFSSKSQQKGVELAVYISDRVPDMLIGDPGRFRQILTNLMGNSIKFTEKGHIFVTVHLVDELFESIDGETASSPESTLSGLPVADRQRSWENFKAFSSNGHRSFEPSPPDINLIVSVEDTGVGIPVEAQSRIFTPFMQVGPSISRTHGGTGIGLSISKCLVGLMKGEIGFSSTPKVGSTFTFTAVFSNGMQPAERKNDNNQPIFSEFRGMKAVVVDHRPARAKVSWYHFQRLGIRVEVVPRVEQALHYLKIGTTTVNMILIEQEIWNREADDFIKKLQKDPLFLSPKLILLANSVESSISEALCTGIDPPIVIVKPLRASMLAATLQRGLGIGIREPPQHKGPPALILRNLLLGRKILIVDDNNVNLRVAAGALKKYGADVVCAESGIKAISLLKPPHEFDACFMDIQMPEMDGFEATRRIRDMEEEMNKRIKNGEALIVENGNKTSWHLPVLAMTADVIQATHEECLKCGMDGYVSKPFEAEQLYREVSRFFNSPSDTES
As to the kind of experiment: E. coli receptor activation assay. It is filed as cell-based.

CRE1/AHK4, sequence (Q9C5U0 whole entry): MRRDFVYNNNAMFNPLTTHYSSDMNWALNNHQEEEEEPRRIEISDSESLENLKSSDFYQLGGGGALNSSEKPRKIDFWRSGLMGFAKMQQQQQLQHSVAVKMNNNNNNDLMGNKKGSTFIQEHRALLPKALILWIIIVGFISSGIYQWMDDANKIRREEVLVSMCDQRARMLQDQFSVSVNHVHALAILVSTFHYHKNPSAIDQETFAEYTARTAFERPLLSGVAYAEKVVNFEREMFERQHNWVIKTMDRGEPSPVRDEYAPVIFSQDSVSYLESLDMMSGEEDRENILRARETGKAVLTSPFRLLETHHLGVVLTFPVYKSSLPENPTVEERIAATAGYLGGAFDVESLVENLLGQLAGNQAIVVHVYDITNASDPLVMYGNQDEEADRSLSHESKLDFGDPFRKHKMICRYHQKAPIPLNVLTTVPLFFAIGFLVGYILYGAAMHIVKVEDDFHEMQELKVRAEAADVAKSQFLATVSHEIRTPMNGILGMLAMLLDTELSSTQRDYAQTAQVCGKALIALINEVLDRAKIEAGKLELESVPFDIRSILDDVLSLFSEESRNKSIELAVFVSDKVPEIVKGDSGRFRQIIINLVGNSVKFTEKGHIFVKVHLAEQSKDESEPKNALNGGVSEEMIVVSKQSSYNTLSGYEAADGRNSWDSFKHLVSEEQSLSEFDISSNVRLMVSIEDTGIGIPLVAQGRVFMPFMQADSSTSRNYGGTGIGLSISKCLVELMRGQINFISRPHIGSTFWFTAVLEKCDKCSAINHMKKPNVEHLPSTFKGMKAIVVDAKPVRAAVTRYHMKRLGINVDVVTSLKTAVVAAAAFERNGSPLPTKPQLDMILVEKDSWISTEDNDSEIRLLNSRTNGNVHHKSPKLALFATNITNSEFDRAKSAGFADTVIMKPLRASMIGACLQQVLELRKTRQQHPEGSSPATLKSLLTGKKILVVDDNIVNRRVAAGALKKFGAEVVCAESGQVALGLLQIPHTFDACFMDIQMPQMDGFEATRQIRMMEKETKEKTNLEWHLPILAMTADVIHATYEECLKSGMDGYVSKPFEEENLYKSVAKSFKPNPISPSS

Turning to `O=C(NCc1ccccc1)Nc1cnns1` [TD-BA], the “E. coli receptor activation assay” value at CRE1/AHK4 is recorded as ~ 50 μM.

In the case of `O=C(Nc1ccccc1)Nc1cnns1` [TDZ, 1-phenyl-3-(1,2,3-thiadiazol-5-yl) urea], the “E. coli receptor activation assay” value on AHK3 is ~ 10 nM; at CRE1/AHK4 it was ~ 1 μM. Taken in the same sequence, the figures for `C/C(=C\CNc1ncnc2[nH]cnc12)CO` [tZ, trans-zeatin] were ~ 10 nM and ~ 1 μM.
